Results reported in PMC9846164, “Oral administration of VDAC1-derived small molecule peptides increases circulating testosterone levels in male rats” (Frontiers in Endocrinology, 2023).
“Also recorded” adds a separate entry of the source. Square brackets hold non-standard residues; d marks the D form. Peptide text beside a SMILES is read from it.

Key:
[1] = Peptide stability in plasma; format: in vitro ADME; conditions: 4 µM peptide (KVSQ 12.5 µM) in 100 µl Brown-Norway rat plasma, 37°C, 1-120 minutes, methanol crash, LC-MS/MS SRM, % of 1 min level, N=3 mean ± SEM, Figure 4J
Protocol: For peptide stability experiments, plasma from Brown-Norway rats aged 90-140 days was collected and stored at -20°C until further use. The plasma was thawed, spun at 12,000 RPM for 10 min, and kept at 4°C. 4 μM of the various peptides were incubated with 100 μL of plasma that was warmed at 37°C for 10 min before use. After 1, 15, 30, 60, 90 or 120 minutes, the plasma/peptide samples were crashed with 300 µL of 100% methanol, spun at 14,000 RPM for 10 min, and the supernatant collected. The methanol in the supernatant was evaporated and the samples were re-extracted. The final pellet was solubilized in 5 μL methanol followed by the addition of 100 μL of sterile double distilled water. The extracted samples were transferred to plastic tubes and placed in the autoloader of the mass spectrometer.
(§1) The analytical instrumentation consisted of a Thermo-Scientific ISQ Quantiva Triple Quadrupole Mass Spectrometer (QQQ), incorporating a heated electrospray ionization (HESI) source, and a Thermo-Scientific UltiMate™ 3000 UHPLC system (including, UltiMate™ 3000 RS autosampler). Analytical conditions were developed using a reference standard in a solution containing 5 µM of the corresponding peptide. The chromatography was resolved by isocratic elution of a binary solvent system incorporating (A) 0.1% Formic Acid (aq) and (B) ACN + 0.1% FA and using an Agilent Eclipse Plus™ C18 analytical column (100mm X 2.1mm ID, 1.8 µm particle). A 5µL injection volume and solvent flow rate of 150 µL/min were used. The MS/MS acquisition time was 7 min and total run time was 8.3 min/injection. The triple Quadrupole MS/MS instrumentation conditions were as follows: the HESI source voltage was 3200 V, the sheath gas […], auxilirary gas 20 L/min, sweep gas 2.0 L/min, the ion transfer temperature was 350°C, the vaporizer temperature was 350°C, the CID gas was 1.5 (mTorr) and the dwell time was 100 msec. The Q1 Resolution (FWHM) was 0.4 (unitless) and the Q3 resolution (FWHM) was 0.7 (unitless). The instrument ran in a selected reaction monitoring (SRM), positive ion detection mode at various collision energies (CE) for the following mass transitions: […]

[2] = Oral pharmacokinetics after single oral dose; format: in vivo, rat; conditions: Brown-Norway, rat; single oral dose 10 mg peptide in 1 ml, fasted 4 hrs, jugular plasma 5-120 minutes, LC-MS/MS, N=4 in two rounds, Figure 4K; read-out: time to peak concentration in blood (converted)
Protocol: (§2) For all oral experiments, administration via gavage began between 8:30-8:50 am with a 3-minute delay between each rat. Animals used for pharmacokinetic studies were fasted for 4 hrs before starting gavage at 1 pm with a 3-minute delay between each rat.
(§3) For oral pharmacokinetic experiments, jugular blood samples were collected following a single oral dose of 10 mg peptide in 1 ml of vehicle after 5, 15, 30, 45, 60, 90, and 120 minutes. Protein inhibitor cocktail (ROCHE, cOmplete protease inhibitors, Cat# 11697498001), which was added into the EDTA collection tubes, was used for KVSQ and RVTQ peptides. Plasma was immediately extracted, and 100 μL of plasma were crashed with 300 µL of 100% methanol, spun at 14,000 RPM for 10 min, and the supernatant harvested. Re-extraction of the precipitant and solubilization of the pellet were as described above.
as §1, with “(unitless).” for “(unitless). The instrument ran in a selected reaction monitoring (SRM), positive ion detection mode at various collision energies (CE) for the following mass transitions:”

Brown-Norway rats [3] = test: Oral pharmacokinetics after single oral dose; format: in vivo, rat; conditions: single oral dose 10 mg in 1 ml; protease inhibitor cocktail in tubes for KVSQ and RVTQ; LC-MS/MS
Protocol: as §2, §3
as §1, with “(unitless).” for “(unitless). The instrument ran in a selected reaction monitoring (SRM), positive ion detection mode at various collision energies (CE) for the following mass transitions:”

Brown-Norway rats [4] = test: Oral gavage of peptides; plasma testosterone and corticosterone; format: in vivo, rat; conditions: ~10 µg/kg oral, 2 hrs after gavage
Protocol: All peptides were dissolved in molecular grade, sterile double distilled water to obtain a 1 mM stock solution and stored at -20°C. Peptides used for oral screenings were prepared from 1 mM peptide stock and diluted in sterile tap water in a total volume of 1 ml.
All samples were measured in duplicate according to each of the manufacturer’s instructions. Serum, plasma, or intratesticular fluid samples were diluted until controls fitted the middle of the standard curve used.

[5] = RdVTQ stability on storage (mass-spec area under the curve); format: physicochemical; conditions: fresh vs in distilled water at 37°C for 7 - 28 days, freeze/thaw, stored at -20°C; Figure 5F
Protocol: as §1

Row | SMILES | half-life in plasma (rank order) [1] | other results
1 | CC[C@H](C)[C@H](NC(=O)[C@H](CCCNC(=N)N)NC(C)=O)C(=O)N[C@H](C(=O)N[C@@H](CCC(N)=O)C(=O)N[C@H](CO)C(N)=O)[C@@H](C)O [Ac-RITQdS-CONH2] (Ac-RITQ[dS]-NH2) | Ac-RITQdS-CONH2 > RdVTQ > Ac-RdITQ-CONH2 > RITQ > RVTQ > KVSQ | Tmax [2]: ~15 min
2 | CC[C@@H](C)[C@@H](NC(=O)[C@H](CCCNC(=N)N)NC(C)=O)C(=O)N[C@H](C(=O)N[C@@H](CCC(N)=O)C(N)=O)[C@@H](C)O [Ac-RdITQ-CONH2] (Ac-R[dI]TQ-NH2) | Ac-RITQdS-CONH2 > RdVTQ > Ac-RdITQ-CONH2 > RITQ > RVTQ > KVSQ | 
3 | CC(C)[C@H](NC(=O)[C@@H](N)CCCCN)C(=O)N[C@@H](CO)C(=O)N[C@@H](CCC(N)=O)C(=O)O [KVSQ] (H-KVSQ-OH) | rapid degradation; also recorded: Ac-RITQdS-CONH2 > RdVTQ > Ac-RdITQ-CONH2 > RITQ > RVTQ > KVSQ | detection in rat plasma after oral dose (Brown-Norway rats [3]): not detected
4 | CC(C)[C@H](NC(=O)[C@@H](N)CCCNC(=N)N)C(=O)N[C@H](C(=O)N[C@@H](CCC(N)=O)C(=O)O)[C@@H](C)O [RVTQ] (H-RVTQ-OH) | Ac-RITQdS-CONH2 > RdVTQ > Ac-RdITQ-CONH2 > RITQ > RVTQ > KVSQ | detection in rat plasma after oral dose (Brown-Norway rats [3]): not detected
5 | CC[C@H](C)[C@H](NC(=O)[C@@H](N)CCCNC(=N)N)C(=O)N[C@H](C(=O)N[C@@H](CCC(N)=O)C(=O)O)[C@@H](C)O [RITQ] (H-RITQ-OH) | Ac-RITQdS-CONH2 > RdVTQ > Ac-RdITQ-CONH2 > RITQ > RVTQ > KVSQ | 
6 | CC[C@@H](C)[C@@H](NC(=O)[C@H](CCCCN)NC(C)=O)C(=O)N[C@H](C(=O)N[C@@H](CCC(N)=O)C(N)=O)[C@@H](C)O [Ac-KdITQ-CONH2] (Ac-K[dI]TQ-NH2) |  | average testosterone levels at ~10 µg/kg (Brown-Norway rats [4]): increased, although not significantly
7 | CC(C)[C@@H](NC(=O)[C@@H](N)CCCNC(=N)N)C(=O)N[C@H](C(=O)N[C@@H](CCC(N)=O)C(=O)O)[C@@H](C)O [RdVTQ] (H-R[dV]TQ-OH) | Ac-RITQdS-CONH2 > RdVTQ > Ac-RdITQ-CONH2 > RITQ > RVTQ > KVSQ | stability (area under the curve by mass-spec) [5]: highly stable
